In data set [1] the test system is SUDHL10. The data set can be described thus: Induction of caspase-3/7 activity (Caspase-Glo 3/7), SUDHL10. It is filed as cell-based. Conditions: caspase-3/7 induction, SUDHL10 cells, 3 h treatment, median. A digest of the protocol:
(§1)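 DLBCL cells treated with compounds for 3 h at 37 °C, then caspase-3/7 activity read by Caspase-Glo 3/7 luminescence. Medium-only background subtracted; EC50 fitted with C0 fixed at 1 and top set to the reference compound's maximal induction.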

The test system of data set [2] is SUDHL5. The data set can be described thus: Anti-proliferative effect (CellTiter-Glo, 72 h), SUDHL5. It is filed as cell-based. Conditions: SUDHL5 cells, antiproliferation, 72 h incubation, median, read-out: Antiproli SUDHL5 [M] (median). In a few lines:
(§2)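 A time zero plate, read with CellTiter-Glo shortly after seeding, served as baseline; compound-treated plates were incubated 72 h at 37 °C and then read identically by luminescence.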

Data set [3] relates to SUDHL5. The data set can be described thus: Induction of cytotoxicity (CellTiter-Glo, 5 h), SUDHL5. The settings on record: read-out: Cytotox SUDHL5 [M] (median); SUDHL5 cells, cytotoxicity induction, CellTiter-Glo, 5 h incubation, median.
In another data set the test system is MV-4-11. The data set can be described thus: Anti-proliferative effect (CellTiter-Glo, 72 h), MV-4-11. It is filed as cell-based. The settings on record: MV-4-11 cells, median, read-out: IC50 antiproliferation assay MV-4-11 [M] (median). A digest of the protocol:
as §2

The target of another data set is MCL-1 (Homo sapiens, UniProt Q07820). The data set can be described thus: Protein-protein interaction assay MCL-1/Noxa BH3 peptide (MCL-1 assay), TR-FRET. The settings on record: MBP-MCL-1 / Noxa BH3-derived peptide, median. It is filed as binding. In a few lines: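 TR-FRET, 665/622 nm emission ratio (excitation 330–350 nm), measured MCL-1/Noxa complex formation. 1 nM MBP-MCL-1, 50 mM Tris/HCl pH 7, 0.1% BGG, 2 mM DTT. Incubation 1 h at 22 °C, then overnight at 4 °C. IC50 by 4-parameter regression, normalized to DMSO (0%) and no-MCL-1 (100%) controls.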

In data set [4] the test system is SUDHL5. The data set can be described thus: Induction of caspase-3/7 activity (Caspase-Glo 3/7), SUDHL5. Conditions: caspase-3/7 induction, SUDHL5 cells, 3 h treatment, median. The class given is cell-based. In a few lines:
as §1

The test system of the next data set is A2780. The data set can be described thus: Anti-proliferative effect (CellTiter-Glo, 72 h), A2780. The settings on record: A2780 cells, median, read-out: IC50 antiproliferation assay A2780 [M] (median). The class given is cell-based. In a few lines: as §2
A further data set has as its system OPM2. The experiment in a line: Anti-proliferative effect (CellTiter-Glo, 72 h), OPM2. The settings on record: OPM2 cells, median, read-out: IC50 antiproliferation assay OPM2 [M] (median). It is filed as cell-based. In a few lines: as §2
Data set [5] deals with SUDHL10. The data set can be described thus: Induction of cytotoxicity (CellTiter-Glo, 5 h), SUDHL10.
The subject of data set [6] is SUDHL10. The experiment in a line: Anti-proliferative effect (CellTiter-Glo, 72 h), SUDHL10. The settings on record: SUDHL10 cells, antiproliferation, 72 h incubation, median, read-out: Antiproli SUDHL10 [M] (median). It is filed as cell-based. In a few lines: as §2
The mark [7] stands for this setting: read-out: Cytotox SUDHL10 [M] (median), SUDHL10 cells, cytotoxicity induction, CellTiter-Glo, 5 h incubation, median.
Setting [8] is: Homo sapiens, SU-DHL10, 5 h, read-out: Cytotox SUDHL10 [M] (median), SUDHL10 cells, cytotoxicity induction, CellTiter-Glo, 5 h incubation, median.

From US10981932B2, “Macrocyclic indole derivatives” (Bayer Aktiengesellschaft, priority 2016, dated 2021) come the findings set out here.

Structures are written as SMILES. Where a name gives a salt, the structure may show the parent alone. Read-outs that look alike come from different tables or passages of the source. A value given as a limit tells only on which side of the number the result lay.

MCL-1, sequence (Q07820 whole entry): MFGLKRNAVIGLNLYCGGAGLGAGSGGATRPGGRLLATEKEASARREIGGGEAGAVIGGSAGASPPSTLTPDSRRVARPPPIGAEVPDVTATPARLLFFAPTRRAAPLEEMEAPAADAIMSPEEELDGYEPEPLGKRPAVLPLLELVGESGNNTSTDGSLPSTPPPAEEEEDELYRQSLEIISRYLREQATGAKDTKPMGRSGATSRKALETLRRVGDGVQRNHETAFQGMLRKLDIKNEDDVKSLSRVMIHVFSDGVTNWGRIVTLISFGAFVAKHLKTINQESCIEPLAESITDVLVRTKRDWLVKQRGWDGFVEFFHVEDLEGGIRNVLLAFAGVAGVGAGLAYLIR

As to `Cn1nc(COc2ccc(S(C)(=O)=O)cc2)c2c1COCC=CCn1c(C(=O)O)c(CCCOc3cccc4ccccc34)c3cccc-2c31` (single isomer, unassigned) [Example 1-52, (E/Z)-1-methy-3-{[4-(methylsulfonyl)phenoxy]methyl}-7-[3-(naphthalen-1-yloxy)propyl]-1,10,13,15-tetrahydropyrazolo[4′,3′:9,10][1,6]oxazacycloundecino[8,7,6-hi]indole-8-carboxylic Acid], the EC50 with SUDHL10 [1] was more than 33 µM; in the data set on SUDHL5 [4], 31 µM. Besides, the IC50 with SUDHL5 [2] (Homo sapiens, SU-DHL-5, 72 h) was 1.25e-05 M; with SUDHL5 [3] it was 3.15e-05 M; in the data set with MV-4-11 (Homo sapiens, MV4-11, 72 h) it was 7.75e-06 M; on MCL-1 it was 0.281 µM; in the data set on A2780 (Homo sapiens, A2780, 72 h) it was 2.26e-05 M; in the data set with OPM2 (Homo sapiens, OPM-2, 72 h), 3.2e-05 M. For the same compound, the IC50 in the data set with SUDHL10 [5] (setting [7]) is 2.71e-05 M; in the data set on SUDHL10 [6] (Homo sapiens, SU-DHL10, 72 h) it was 7.55e-06 M.
As for `COc1ccccc1-c1ncc(OCc2nn(C)c3c2-c2cccc4c(CCCOc5cccc6ccccc56)c(C(=O)O)n(c24)CCCN(C)C3)cn1` (single isomer, unassigned) [Example 1-91, 11-({[2-(2-methoxyphenyl)pyrimidin-5-yl]oxy}methyl)-7,9-dimethyl-1-[3-(naphthalen-1-yloxy)propyl]-4,5,6,7,8,9-hexahydropyrazolo[3′,4′:7,8][1,5]diazecino[9,10,1-hi]indole-2-carboxylic acid-N-ethylethanamine Salt], the EC50 in the data set on SUDHL10 [1] (Homo sapiens, SU-DHL10, 3 h) was found to be 7.32 µM; in the data set on SUDHL5 [4] (Homo sapiens, SU-DHL-5, 3 h) it was 6.34 µM. In addition, the IC50 with SUDHL5 [2] (Homo sapiens, SU-DHL-5, 72 h) was found to be 2.48e-06 M; in the data set on SUDHL5 [3], 5.99e-06 M; with MV-4-11 (Homo sapiens, MV4-11, 72 h) it was 2.62e-06 M; on MCL-1, 0.0102 µM; with A2780 (Homo sapiens, A2780, 72 h), 7.55e-06 M; with OPM2 (Homo sapiens, OPM-2, 72 h) it was 8.37e-06 M. Further, the IC50 in the data set with SUDHL10 [5] (setting [8]) is 9.23e-06 M; in the data set with SUDHL10 [6] (Homo sapiens, SU-DHL10, 72 h) it was 4.3e-06 M.
For `COc1ccccc1-c1ncc(OCc2nn(C)c3c2-c2cccc4c(CCCOc5cccc6ccccc56)c(C(=O)O)n(c24)CCCN(C)C3)cn1` (single isomer, unassigned) [Example 1-92, 11-({[2-(2-methoxyphenyl)pyrimidin-5-yl]oxy}methyl)-7,9-dimethyl-1-[3-(naphthalen-1-yloxy)propyl]-4,5,6,7,8,9-hexahydropyrazolo[3′,4′:7,8][1,5]diazecino[9,10,1-hi]indole-2-carboxylic acid-N-ethylethanamine Salt], the EC50 was determined as 4.47 µM with SUDHL10 [1] and 3.88 µM in the data set on SUDHL5 [4]. Moreover, the IC50 with SUDHL5 [2] was determined as 3.21e-06 M; with SUDHL5 [3] it was 2.9e-06 M; in the data set with MV-4-11, 1.57e-06 M; at MCL-1, 0.0068 µM; with A2780 it was 6.23e-06 M; in the data set on OPM2, 9.6e-06 M. Also, the IC50 in the data set with SUDHL10 [5] (setting [7]) stood at 5.77e-06 M; in the data set with SUDHL10 [6], 3.83e-06 M.
Turning to `Cn1nc(COc2ccc(N3CCN(S(C)(=O)=O)CC3)cc2)c2c1COCCCCn1c(C(=O)O)c(CCCOc3cccc4ccccc34)c3cccc-2c31` (single isomer, unassigned; enantiomer 1) [Example 1-9, 1-methyl-3-({4-[4-(methylsulfonyl)piperazin-1-yl]phenoxy}methyl)-7-[3-(naphthalen-1-yloxy)propyl]-1,10,11,12,13,15-hexahydropyrazolo[4′,3′:9,10][1,6]oxazacycloundecino[8,7,6-hi]indole-8-carboxylic Acid (Enantiomer 1)], the EC50 was found to be 14.7 µM in the data set with SUDHL10 [1] and 12.5 µM in the data set with SUDHL5 [4]. The IC50 in the data set on SUDHL5 [2] was 3.37e-06 M; in the data set with SUDHL5 [3] it was 9.46e-06 M; in the data set with MV-4-11, 8.59e-06 M; at MCL-1, 0.0242 µM; in the data set on A2780, more than 3.3e-05 M; in the data set with OPM2 it was more than 3.3e-05 M. Besides, the IC50 in the data set on SUDHL10 [5] (setting [7]) turned out to be 9.08e-06 M; in the data set with SUDHL10 [6], 1.17e-05 M.
Turning to `Cn1nc(COc2ccc(N3CCN(S(=O)(=O)C4CC4)CC3)cc2)c2c1COCCCCn1c(C(=O)O)c(CCCOc3cccc4ccccc34)c3cccc-2c31` (single isomer, unassigned; enantiomer 1) [Example 1-12, 3-({4-[4-(cyclopropylsulfonyl)piperazin-1-yl]phenoxy}methyl)-1-methyl-7-[3-(naphthalen-1-yloxy)propyl]-1,10,11,12,13,15-hexahydropyrazolo[4′,3′:9,10][1,6]oxazacycloundecino[8,7,6-hi]indole-8-carboxylic Acid (Enantiomer 1)], the concentration for a half-maximal effect (EC50) in the data set with SUDHL10 [1] amounted to 20.4 µM; in the data set with SUDHL5 [4], 18.3 µM. Moreover, the IC50 with SUDHL5 [2] is 5.72e-06 M; with SUDHL5 [3] it was 1.73e-05 M; in the data set with MV-4-11 it was 6.78e-06 M; against MCL-1, 0.0688 µM; in the data set on A2780, more than 3.3e-05 M; in the data set with OPM2 it was more than 3.3e-05 M. In addition, the IC50 came out at 1.43e-05 M with SUDHL10 [5] (setting [7]) and 8.96e-06 M with SUDHL10 [6].
Regarding `Cc1c2c(nn1C)CN(C)CCCn1c(C(=O)O)c(CCCOc3cccc4ccccc34)c3cccc-2c31` (single isomer, unassigned; enantiomer 1) [Example 1-34, 7,10,11-trimethyl-1-[3-(naphthalen-1-yloxy)propyl]-4,5,6,7,8,10-hexahydropyrazolo[3′,4′:7,8][1,5]diazecino[9,10,1-hi]indole-2-carboxylic Acid-N-ethylethanamine Salt (Enantiomer 1)], the EC50 in the data set on SUDHL10 [1] is 6.15 µM; in the data set on SUDHL5 [4] it was 4.5 µM. The IC50 is 1.31e-05 M in the data set on SUDHL5 [2] (Homo sapiens, SU-DHL-5, 72 h); 3.36e-06 M in the data set with SUDHL5 [3]; 8.89e-06 M in the data set with MV-4-11; 0.00671 µM on MCL-1; more than 3.3e-05 M with A2780 (Homo sapiens, A2780, 72 h); 2.69e-05 M in the data set with OPM2 (Homo sapiens, OPM-2, 72 h). The IC50 with SUDHL10 [5] (setting [7]) is 4.53e-06 M; in the data set on SUDHL10 [6] (Homo sapiens, SU-DHL10, 72 h) it was more than 3.3e-05 M.
Regarding `CN(C)S(=O)(=O)N1CCN(c2ccc(OCc3nn(C)c4c3-c3cccc5c(CCCOc6cccc7ccccc67)c(C(=O)O)n(c35)CCCCCC4)cc2)CC1` (single isomer, unassigned; enantiomer 1) [Example 1-40, 3-({4-[4-(dimethylsulfamoyl)piperazin-1-yl]phenoxy}methyl)-1-methyl-7-[3-(naphthalen-1-yloxy)propyl]-10,11,12,13,14,15-hexahydro-1H-pyrazolo[4′,3′:4,5]azacycloundecino[3,2,1-hi]indole-8-carboxylic acid-N-ethylethanamine Salt (Enantiomer 1)], the EC50 in the data set on SUDHL10 [1] is more than 33 µM; with SUDHL5 [4], 21.6 µM. The IC50 stood at 5.8e-06 M with SUDHL5 [2] (Homo sapiens, SU-DHL-5, 72 h); 1.69e-05 M in the data set on SUDHL5 [3]; 4.94e-06 M in the data set on MV-4-11 (Homo sapiens, MV4-11, 72 h); 0.0368 µM at MCL-1; 3.95e-06 M in the data set with A2780 (Homo sapiens, A2780, 72 h); 5.38e-06 M in the data set on OPM2. Also, the IC50 was 2.3e-05 M in the data set with SUDHL10 [5] (setting [7]) and 1.93e-06 M in the data set with SUDHL10 [6] (Homo sapiens, SU-DHL10, 72 h).
In the case of `Cc1nn(C)c2c1-c1cccc3c(CCCOc4cccc5ccccc45)c(C(=O)O)n(c13)CCCN(c1ccc(N3CCOCC3)cc1)C2` (single isomer, unassigned; enantiomer 1) [Example 1-99, 9,11-Dimethyl-7-[4-(morpholin-4-yl)phenyl]-1-[3-(1-naphthyloxy)propyl]-4,5,6,7,8,9-hexahydropyrazolo[3′,4′:7,8][1,5]diazecino[9,10,1-hi]indole-2-carboxylic Acid (Enantiomer 1)], the EC50 with SUDHL10 [1] came to 13.5 µM; in the data set on SUDHL5 [4] it was 9 µM. In addition, the IC50 turned out to be 8.76e-06 M in the data set on SUDHL5 [2] (Homo sapiens, SU-DHL-5, 72 h); 1.3e-05 M in the data set with SUDHL5 [3]; 7.19e-06 M in the data set on MV-4-11 (Homo sapiens, MV4-11, 72 h); 0.0203 µM at MCL-1; 1.12e-05 M with A2780 (Homo sapiens, A2780, 72 h); 1.98e-05 M with OPM2 (Homo sapiens, OPM-2, 72 h). Also, the IC50 with SUDHL10 [5] (setting [8]) was found to be 1.93e-05 M; in the data set with SUDHL10 [6] (Homo sapiens, SU-DHL10, 72 h), 4.63e-06 M.
